Measured values: publication PMC10305115, “Development of a Minimalistic Physiologically Based Pharmacokinetic (mPBPK) Model for the Preclinical Development of Spectinamide Antibiotics” (Pharmaceutics, 2023)
Where two headings read alike, the source gives them in different places.

How the values were obtained:
[1] = tested on: plasma proteins; assay: Plasma protein binding by equilibrium dialysis (RED device), mouse plasma; type: in vitro ADME, BALB/c mice
Procedure: (§1) Plasma protein binding was measured by equilibrium dialysis using a RED device (8 kDa molecular cutoff; Thermo Scientific, Rockford, IL, USA) containing plasma and buffer chambers for dialysis and a base plate. Two concentrations (0.5 and 5 mg/L) of 1599 and 1810 were prepared in mouse plasma from BALB/c mice and rat plasma from Sprague-Dawley rats, and an aliquot of 300 µL was added in the plasma chamber in duplicate. A 500 µL aliquot of PBS was added in the buffer chamber for dialysis. Then, the base plate was covered with sealing tape and incubated at 37 °C at approximately 100 rpm on an orbital shaker for 4 h to achieve equilibrium. After incubation, 50 µL of each sample was pipetted from the plasma and buffer chambers into separate micro-centrifuge tubes. A total of 50 µL of plasma was added to the buffer samples and an equal volume of PBS to the collected plasma samples and vortexed. Samples were processed by protein precipitation and analyzed for bound and unbound drug concentrations by liquid chromatography-tandem mass spectrometry (LC-MS/MS). Ranitidine (0.5 and 5 mg/L) was included as a positive control. The fraction of compound unbound to plasma proteins (fu) was calculated from the measured concentrations in the plasma and buffer chambers using the following equation:(1) fu=1−C(Plasma Chamber)−C(Buffer Chamber)/C(Plasma Chamber)

[2] = tested on: plasma proteins; assay: Plasma protein binding by equilibrium dialysis (RED device), rat plasma; type: in vitro ADME, Sprague-Dawley rats; settings: 0.5 and 5 mg/L, 37 °C, 4 h
Procedure: as §1

[3] = tested on: ELF proteins; assay: Fraction unbound in epithelial lining fluid calculated by Poulin and Theil equation, mouse; settings: calculated from fu in plasma and albumin ratio plasma/ELF
Procedure: (§2) For intravenous administration, the bolus dose was assumed to be mixed instantaneously into the venous blood. For subcutaneous administration, the dose was administered as an external compartment, absorbed into the venous compartment via a first-order absorption rate constant and a bioavailability component. For intrapulmonary aerosol administration, we have modified the lung tissue by adding the epithelial lining fluid (ELF) sub-compartment, as shown in Figure 2. The physiological volume of the ELF sub-compartment was obtained from the literature. The dose was administered as an external compartment, absorbed into the ELF compartment via a first-order absorption rate constant and a bioavailability component. The compound was assumed to be bound to the ELF proteins, and only the unbound fraction was distributed to the other sub-compartments of the lungs and ultimately to the systemic circulation. The fraction unbound in ELF was calculated from the fraction unbound in plasma and the albumin ratio between plasma and ELF using the equation described by Poulin and Theil.

[4] = tested on: ELF proteins; assay: Fraction unbound in epithelial lining fluid calculated by Poulin and Theil equation, rat; settings: calculated from fu in plasma and albumin ratio plasma/ELF
Procedure: as §2

[5] = Integrated mouse and rat PBPK model, inter-animal variability; settings: Intravenous Estimate (%RSE); simultaneous fit of mouse and rat plasma and tissue data
[6] = Simcyp multicompartment lung and granuloma model simulation; settings: Simcyp model input parameter (Table S1), human PBPK model
[7] = Parallel artificial membrane permeability assay (PAMPA); type: in vitro ADME; settings: passive permeability could not be determined
[8] = Subcutaneous PBPK model predictions vs observed plasma concentrations in Mtb infected mice; type: in vivo, BALB/c mice; settings: SC dose-ranging and dose-fractionation studies
[9] = Mouse (20 g); BALB/c blood, 37 °C, 1 h
Procedure: (§3) Fresh blood was collected from BALB/c mice and Sprague-Dawley rats via cardiac puncture in tubes with lithium heparin as anticoagulant. Hematocrit was measured using a VetScan HM5 hematology analyzer (Abaxis, Union City, CA, USA). […] Aliquots of pre-warmed whole blood and plasma were spiked with the test compounds and incubated at 37 °C. After 1 h of incubation, the incubated whole blood was removed, and the plasma was separated by centrifugation. Aliquots of the incubated control plasma were also removed after 1 h of incubation. Plasma samples were treated with 8 volumes of ice-cold methanol containing internal standard (100 ng/mL spectinomycin) and analyzed for drug concentrations by LC-MS/MS [12].
(§4) The whole blood to plasma ratio k(b/p) was calculated by taking the ratio of the concentrations measured in the control plasma over the concentrations measured in the plasma centrifuged from the incubated whole blood, as shown in Equation (2). The erythrocyte to plasma partitioning coefficient k(RBC/p) was calculated from the whole blood to plasma ratio by accounting for the measured hematocrit, as shown in Equation (3):(2) k(b/p)=CCP/CP (3) k(RBC/p)=1+1/HCCP/CP−1 where CCP is the concentration of the test compound in the control plasma, CP is the concentration of the test compound in the plasma centrifuged from the incubated whole blood, and H is the measured hematocrit value.

[10] = Rat (225 g); Sprague-Dawley blood, 37 °C, 1 h
Procedure: as §3, §4

[11] = healthy rats, plasma, IV SD 10 mg/kg
Source text: After the successful inter-route extrapolation of the model, we scaled the PBPK model between species by extending the model to rats. This was accomplished by incorporating the physiological parameters of a 225 g rat and updating the experimentally assessed drug-specific parameters k(b/p) and fu.

[12] = cited from earlier work; for AUCinf Liver Observed / AUCinf Lung Observed / AUCinf Observed / AUCinf Spleen Observed: healthy mice; for AUCinf Observed: plasma
[13] = healthy rats, plasma, IV SD 10 mg/kg; cited from earlier work
[14] = tested on: murine-lung-derived dendritic cells and a BALB/c-derived monocyte macrophage cell line; settings: cited from earlier work
[15] = Minimalistic PBPK model, mouse (fitting and simulation); settings: for F Bioavailability component / Ka 1st order absorption rate constant / AUCinf Liver Fold Difference / AUCinf Lung Fold Difference / AUCinf Fold Difference (predicted vs observed) / AUCinf Spleen Fold Difference: healthy mice; for AUCinf Fold Difference (predicted vs observed): plasma
[16] = Intratracheal Estimate (%RSE), intrapulmonary aerosol single dose 50 mg/kg
[17] = Intravenous Estimate (%RSE), model fitted to IV single dose 10 mg/kg plasma and tissue data

CN[C@@H]1[C@H](O)[C@H](NC)[C@H]2O[C@]3(O)[C@H](O[C@@H]2[C@H]1O)O[C@H](C)C[C@H]3NC(=O)Cc1ccc(Cl)cn1 [Spectinamide 1599, 2-(5-chloroypyridin-2-yl)-N-((2R,4R,4aS,5aR,6S,7S,8R,9S,9aR, 10aS)-4a,7,9-trihydroxy-2-methyl-6,8-bis(methyl-amino)decahydro-2H-benzo[b]pyrano [2,3-e] [1,4]dioxin-4-yl)acetamide]
fuPlasma fraction unbound in plasma ([1]; Mouse plasma, 0.5 and 5 mg/L, 37 °C, 4 h): 0.602
plasma protein binding ([1]; mouse and rat): low plasma protein binding
fuPlasma fraction unbound in plasma [2]: 0.563
fuELF fraction unbound in epithelial lining fluid [3]: 0.948
fuELF fraction unbound in epithelial lining fluid [4]: 0.940
ω KI→CLiver inter-animal variability on KI→CLiver [5]: 0.61 (29.8)
ω KI→CLung inter-animal variability on KI→CLung [5]: 0.87 (30.6)
ω KI→COther inter-animal variability on KI→COthers [5]: 0.48 (21.6)
ω KI→CSpleen inter-animal variability on KI→CSpleen [5]: 0.66 (41.0)
CLR renal clearance [6]: 3.27 L/h
PAMPA concentrations in the acceptor compartment [7]: below the limit of detection
difference in pharmacokinetics between healthy and infected mice [8]: no significant difference
k(b/p) blood to plasma ratio [9]: 0.552
k(b/p) blood to plasma ratio [10]: 0.812
AUCinf Fold Difference (predicted vs observed) [11]: 1.58
dose dependency of disposition ([12]; dose range of 10 to 400 mg/kg in mice): did not suggest any dose dependencies
AUCinf Liver Observed ([12]; IV QD5 10 mg/kg): 19.6 µg·h/g
AUCinf Liver Observed ([12]; IV SD 10 mg/kg): 19.9 µg·h/g
AUCinf Liver Observed ([12]; SC QD5 200 mg/kg): 336 µg·h/g
AUCinf Liver Observed ([12]; SC SD 50 mg/kg): 91.8 µg·h/g
AUCinf Lung Observed ([12]; IV QD5 10 mg/kg): 4.05 µg·h/g
AUCinf Lung Observed ([12]; IV SD 10 mg/kg): 3.79 µg·h/g
AUCinf Lung Observed ([12]; SC QD5 200 mg/kg): 69.1 µg·h/g
AUCinf Lung Observed ([12]; SC SD 50 mg/kg): 19.1 µg·h/g
AUCinf Observed ([12]; IPA BIW 50 mg/kg): 14.2 µg·h/mL
AUCinf Observed ([12]; IPA BIW 150 mg/kg): 108 µg·h/mL
AUCinf Observed ([12]; IPA QD5 10 mg/kg): 3.57 µg·h/mL
AUCinf Observed ([12]; IPA QD5 50 mg/kg): 39.8 µg·h/mL
AUCinf Observed ([12]; IPA QD5 150 mg/kg): 96.9 µg·h/mL
AUCinf Observed ([12]; IPA SD 10 mg/kg): 5.51 µg·h/mL
AUCinf Observed ([12]; IPA SD 50 mg/kg): 23.2 µg·h/mL
AUCinf Observed ([12]; IPA SD 150 mg/kg): 59.5 µg·h/mL
AUCinf Observed ([12]; IPA TIW 10 mg/kg): 5.36 µg·h/mL
AUCinf Observed ([12]; IPA TIW 50 mg/kg): 24.3 µg·h/mL
AUCinf Observed ([12]; IPA TIW 150 mg/kg): 61.7 µg·h/mL
AUCinf Observed ([12]; IV QD5 10 mg/kg): 6.37 µg·h/mL
AUCinf Observed ([12]; IV SD 10 mg/kg): 7.52 µg·h/mL
AUCinf Observed ([12]; SC QD5 200 mg/kg): 227 µg·h/mL
AUCinf Observed ([12]; SC SD 50 mg/kg): 40.4 µg·h/mL
AUCinf Spleen Observed ([12]; IV QD5 10 mg/kg): 3.91 µg·h/g
AUCinf Spleen Observed ([12]; IV SD 10 mg/kg): 3.42 µg·h/g
AUCinf Spleen Observed ([12]; SC QD5 200 mg/kg): 110 µg·h/g
AUCinf Spleen Observed ([12]; SC SD 50 mg/kg): 23.6 µg·h/g
AUCinf Observed [13]: 19.8 µg·h/mL
intracellular uptake [14]: concentration-dependent intracellular uptake
estimated absorption half-life ([15]; IPA administration site, mice): ~ 8 min
bioavailability ([15]; IPA administration, mice): 33%
F Bioavailability component [15, 16]: 0.33 (2.03)
Ka 1st order absorption rate constant [15, 16]: 5.03 (4.53)
KC→IKidney 1st order back flux from cellular sub compartment of the kidney [15, 17]: 0.15 (31.0) 1/h
KC→ILiver 1st order back flux from cellular sub compartment of the liver [15, 17]: 0.061 (13.7) 1/h
KC→ILung 1st order back flux from cellular sub compartment of the lung [15, 17]: 0.028 (41.5) 1/h
KC→ISpleen 1st order back flux from cellular sub compartment of the spleen [15, 17]: 0.01 (106) 1/h
KC→Iothers 1st order back flux from cellular sub compartment of the other tissues [15, 17]: 7.0 × 10^−5 (142) 1/h
F Bioavailability component ([15]; Subcutaneous Estimate (%RSE)): 0.86 (6.15)
Ka 1st order absorption rate constant ([15]; Subcutaneous Estimate (%RSE)): 4.36 (7.86)
AUCinf Liver Fold Difference ([15]; IV QD5 10 mg/kg): 1.58
AUCinf Liver Fold Difference ([15]; IV SD 10 mg/kg): 1.2
AUCinf Liver Fold Difference ([15]; SC QD5 200 mg/kg): 1.55
AUCinf Liver Fold Difference ([15]; SC SD 50 mg/kg): 1.3
AUCinf Lung Fold Difference ([15]; IV QD5 10 mg/kg): 1.39
AUCinf Lung Fold Difference ([15]; IV SD 10 mg/kg): 1.65
AUCinf Lung Fold Difference ([15]; SC QD5 200 mg/kg): 1.42
AUCinf Lung Fold Difference ([15]; SC SD 50 mg/kg): 1.41
AUCinf Fold Difference (predicted vs observed) ([15]; IPA BIW 50 mg/kg): 1.70
AUCinf Fold Difference (predicted vs observed) ([15]; IPA BIW 150 mg/kg): 1.49
AUCinf Fold Difference (predicted vs observed) ([15]; IPA QD5 10 mg/kg): 1.36
AUCinf Fold Difference (predicted vs observed) ([15]; IPA QD5 50 mg/kg): 1.64
AUCinf Fold Difference (predicted vs observed) ([15]; IPA QD5 150 mg/kg): 1.33
AUCinf Fold Difference (predicted vs observed) ([15]; IPA SD 10 mg/kg): 1.13
AUCinf Fold Difference (predicted vs observed) ([15]; IPA SD 50 mg/kg): 1.05
AUCinf Fold Difference (predicted vs observed) ([15]; IPA SD 150 mg/kg): 1.23
AUCinf Fold Difference (predicted vs observed) ([15]; IPA TIW 10 mg/kg): 1.11
AUCinf Fold Difference (predicted vs observed) ([15]; IPA TIW 50 mg/kg): 1.00
AUCinf Fold Difference (predicted vs observed) ([15]; IPA TIW 150 mg/kg): 1.18
AUCinf Fold Difference (predicted vs observed) ([15]; IV QD5 10 mg/kg): 1.39
AUCinf Fold Difference (predicted vs observed) ([15]; IV SD 10 mg/kg): 1.18
AUCinf Fold Difference (predicted vs observed) ([15]; SC QD5 200 mg/kg): 1.43
AUCinf Fold Difference (predicted vs observed) ([15]; SC SD 50 mg/kg): 1.02
AUCinf Spleen Fold Difference ([15]; IV QD5 10 mg/kg): 1.44
AUCinf Spleen Fold Difference ([15]; IV SD 10 mg/kg): 1.47
AUCinf Spleen Fold Difference ([15]; SC QD5 200 mg/kg): 1.14
AUCinf Spleen Fold Difference ([15]; SC SD 50 mg/kg): 1.11
estimated first-order absorption half-life ([15]; subcutaneous administration site, mice): ~ 10 min
bioavailability ([15]; subcutaneous administration, mice): 86%
